Assay results published in the SangsterLogP compilation.

Test: method code SF-AS, from DOI: 10.1002/qsar.19890080102

| SMILES | logD (pH 1.5) | logD (pH 5.5) |
| --- | --- | --- |
| NS(=O)(=O)c1ccc(I)cc1 | 1.55 | – |
| NS(=O)(=O)c1ccc(-c2ccccc2)cc1 | 2.24 | – |
| NS(=O)(=O)c1ccc(Br)cc1 | 1.34 | – |
| NS(=O)(=O)c1cccc(Br)c1 | 1.35 | – |
| Nc1cccc(S(N)(=O)=O)c1 | – | -0.32 |
| NS(=O)(=O)c1cccc(Cl)c1 | 1.16 | – |
| NS(=O)(=O)c1cccc(I)c1 | 1.58 | – |
| CCCCOc1ccc(S(N)(=O)=O)cc1 | 2.05 | – |
| NS(=O)(=O)c1cccc(S(N)(=O)=O)c1 | -0.5 | – |

Second part, the compound after the results:

| logD (pH 1.5) | logD (pH 5.5) | SMILES |
| --- | --- | --- |
| -0.4 | – | CS(=O)(=O)Nc1ccc(S(N)(=O)=O)cc1 |
| 1.71 | – | CC(C)c1ccc(S(N)(=O)=O)cc1 |
| 1.66 | – | CC(C)c1cccc(S(N)(=O)=O)c1 |
| 2.06 | – | CCCCOc1cccc(S(N)(=O)=O)c1 |
